These results are taken from PubChem BioAssay (NCI).

Test systems include MDA-N; DMS 273 small cell lung; KM20L2 colon; SNB-78 CNS; DMS 114 small cell lung; LXFL 529 NSCLC; XF 498 CNS; RXF-631 renal; HOP-18 NSCLC.
Assay in all cases: NCI-60 cell line screen, 48 h

Structures are written as SMILES. Where “and” joins values, the source holds several entries; their conditions need not be identical. Equal values may be shown once.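 Results reflect a 48-hour exposure of cells in 96-well plates to compound at five concentrations. Abbreviation: GI50, concentration required for 50% inhibition of growth. The concentration for full growth arrest is given as TGI.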

`COC(=O)C(CCC(=O)CCl)N1C(=O)c2ccccc2C1=O` (stereo not drawn) came in with a TGI in the assay on MDA-N of 23.9 µM.
For the compound `COC(=O)C1C(=O)CC2CCCCC21` (stereo not drawn), the TGI in the assay with DMS 273 small cell lung, in the assay with KM20L2 colon, in the assay with SNB-78 CNS, in the assay on DMS 114 small cell lung and in the assay on LXFL 529 NSCLC was more than 100 µM in each case.
For `CN(C)/C=N\c1ccnc(=O)[nH]1`, the TGI in the assay with DMS 273 small cell lung, in the assay on XF 498 CNS, in the assay on KM20L2 colon, in the assay on SNB-78 CNS, in the assay with DMS 114 small cell lung and in the assay on LXFL 529 NSCLC was more than 100 µM each time. The TGI with RXF-631 renal and in the assay with HOP-18 NSCLC was more than 100 µM each time.
Regarding `Cc1ccc(Oc2ccccc2N)cc1`, the TGI in the assay on DMS 273 small cell lung was more than 100 µM; in the assay on XF 498 CNS, more than 100 µM; with KM20L2 colon, 30.4 µM; in the assay on SNB-78 CNS it was more than 100 µM; in the assay on DMS 114 small cell lung it was more than 100 µM; in the assay with LXFL 529 NSCLC, more than 100 µM. Moreover, the TGI in the assay on RXF-631 renal and with HOP-18 NSCLC was more than 100 µM each time.
Regarding `Cl/C(N=Nc1ccccc1)=N/Nc1ccccc1`, the TGI in the assay on DMS 273 small cell lung, in the assay with XF 498 CNS, in the assay with KM20L2 colon, with SNB-78 CNS, with LXFL 529 NSCLC and in the assay on RXF-631 renal was more than 100 µM throughout. This compound showed a TGI in the assay on HOP-18 NSCLC of more than 100 µM.
As to `NNc1cnn(-c2ccccc2)c(=O)c1Cl`, the TGI with DMS 273 small cell lung, in the assay with KM20L2 colon, with SNB-78 CNS, in the assay on DMS 114 small cell lung, in the assay on LXFL 529 NSCLC and in the assay on HOP-18 NSCLC was more than 100 µM each time.
For `Cc1c2c(cc3c1C(=O)C(=O)C1=C3OC[C@@H]1C)C(C)(C)CCC2`, the TGI came out at 28.5 µM in the assay with DMS 273 small cell lung; 55.7 µM in the assay with XF 498 CNS; 44.5 µM with KM20L2 colon; 31.9 µM in the assay with DMS 114 small cell lung; 37.6 µM in the assay with LXFL 529 NSCLC; 32.3 µM in the assay on HOP-18 NSCLC.
Consider `COc1ccc(OC(C(=O)O)C(C)C)c2c1CCCC2=O` (stereo not drawn), for which the TGI in the assay on DMS 273 small cell lung, in the assay with XF 498 CNS, with KM20L2 colon, in the assay with SNB-78 CNS, in the assay on DMS 114 small cell lung and in the assay on LXFL 529 NSCLC was more than 100 µM in each case. Moreover, the TGI in the assay with RXF-631 renal and in the assay with HOP-18 NSCLC was more than 100 µM in each case.
In the case of `CC(=O)NC(CCCCN)C(=O)NCc1ccccc1` (stereo not drawn), the TGI with DMS 273 small cell lung, in the assay with XF 498 CNS, in the assay on KM20L2 colon, in the assay on DMS 114 small cell lung and with LXFL 529 NSCLC was more than 100 µM throughout.
On to `C#CCNC(=O)NCCCCC(NC(=O)OCc1ccccc1)C(=O)OCc1ccccc1` (stereo not drawn), for which the TGI in the assay on DMS 273 small cell lung is more than 100 µM; in the assay with XF 498 CNS, 40.8 µM; with KM20L2 colon it was more than 100 µM; in the assay with SNB-78 CNS it was more than 100 µM; with DMS 114 small cell lung it was more than 73.5 µM; in the assay on LXFL 529 NSCLC it was more than 100 µM. In addition, the TGI in the assay with RXF-631 renal and in the assay on HOP-18 NSCLC was more than 100 µM in each case.
Consider `[O-]c1ccccc1C=Nc1ccc2c(c1)CCC2.[O-]c1ccccc1C=Nc1ccc2c(c1)CCC2.[O]=[U+2]=[O]`, for which the GI50 was 14.2 µM in the assay on DMS 273 small cell lung; more than 100 µM in the assay with XF 498 CNS; 56.6 µM with KM20L2 colon; more than 100 µM with SNB-78 CNS; 7.05 µM with DMS 114 small cell lung; 28.4 µM in the assay with LXFL 529 NSCLC. Besides, the GI50 in the assay on RXF-631 renal was more than 100 µM; in the assay with HOP-18 NSCLC it was 8.74 µM. Besides, the TGI with DMS 273 small cell lung, with XF 498 CNS, in the assay with KM20L2 colon, in the assay on SNB-78 CNS, with DMS 114 small cell lung and in the assay on LXFL 529 NSCLC was more than 100 µM throughout. Moreover, the TGI in the assay on RXF-631 renal and in the assay on HOP-18 NSCLC was more than 100 µM each time.
`CN(C)c1nc(=NCc2ccco2)ss1`: the TGI is more than 34.6 µM in the assay with DMS 273 small cell lung; 33.7 µM in the assay with MDA-N; more than 100 µM in the assay on XF 498 CNS; more than 100 µM in the assay on KM20L2 colon; more than 100 µM with SNB-78 CNS; more than 100 µM in the assay with LXFL 529 NSCLC. The compound further had a TGI in the assay with HOP-18 NSCLC of more than 100 µM.
For `CC(C)(O)/C=C/C(=O)[C@](C)(O)[C@H]1[C@H](O)C[C@@]2(C)[C@@H]3CC=C4[C@@H](C[C@H](O)C(=O)C4(C)C)[C@]3(C)C(=O)C[C@]12C`, the GI50 with DMS 273 small cell lung was 0.108 µM; with KM20L2 colon, 0.0872 µM; in the assay on SNB-78 CNS, 0.203 µM; in the assay with DMS 114 small cell lung, 0.108 µM; with LXFL 529 NSCLC, 0.0484 µM; with RXF-631 renal, 0.116 µM and 0.34 µM. The GI50 in the assay on HOP-18 NSCLC is 0.0838 µM. Also, the TGI was 0.543 µM in the assay with DMS 273 small cell lung; 0.92 µM and 1.67 µM in the assay with SNB-78 CNS; 0.948 µM and 9.41 µM in the assay on DMS 114 small cell lung; 4.09 µM in the assay with LXFL 529 NSCLC; 0.549 µM and 1.97 µM in the assay with RXF-631 renal; 0.41 µM and 0.394 µM in the assay with HOP-18 NSCLC.
Turning to `O=C1OC(c2ccccc2)=N/C1=C\c1ccc(Oc2ccc(Cl)c(Cl)c2)cc1`, the TGI in the assay on KM20L2 colon is more than 100 µM; in the assay with SNB-78 CNS it was 85.7 µM; with DMS 114 small cell lung it was 35.6 µM; in the assay with LXFL 529 NSCLC, 85.6 µM; in the assay with HOP-18 NSCLC it was more than 100 µM.
For the compound `Cc1cc(C)nc(/C(=N\NC(N)=O)C(=O)Nc2nc3ccc(C)cc3s2)c1`, the TGI was more than 93.5 µM in the assay on DMS 273 small cell lung; more than 100 µM with XF 498 CNS; more than 100 µM in the assay on KM20L2 colon; more than 100 µM with SNB-78 CNS; more than 81.9 µM in the assay with DMS 114 small cell lung; more than 100 µM with LXFL 529 NSCLC. Further, in the assay on HOP-18 NSCLC, the TGI is more than 100 µM.
For `C[Si](C)(C)C(CCCCSc1ccccc1)(Sc1ccccc1)Sc1ccccc1`, the TGI with DMS 273 small cell lung, in the assay on XF 498 CNS, in the assay with SNB-78 CNS, in the assay on DMS 114 small cell lung, in the assay with LXFL 529 NSCLC and with RXF-631 renal was more than 100 µM in each case.
For `O=[N+]([O-])c1nccn1CC(O)CN1CCCCC1` (stereo not drawn), in the assay on MDA-N, the TGI was more than 100 µM.
For the compound `CCc1cccc(C)c1N1C(=O)C(=O)C(c2nc3ccccc3o2)C(=O)C1=O`, the TGI with DMS 273 small cell lung, with XF 498 CNS, with KM20L2 colon, with SNB-78 CNS, in the assay on LXFL 529 NSCLC and with HOP-18 NSCLC was more than 100 µM in each case.
